# Results taken from US9062124B2, “GIP-based mixed agonists for treatment of metabolic disorders and obesity” (priority 2008, dated 2015).
# Where a SMILES comes first, the peptide text is derived from it. [ ]: non-standard residue; d: D form. The star is where a group is joined. Stearoyl = CCCCCCCCCCCCCCCCCC(=O)*; Palmitoyl = CCCCCCCCCCCCCCCC(=O)*; Myristoyl = CCCCCCCCCCCCCC(=O)*; Aib = CC(C)(N)C(=O)O
# Experiments:
# Format in all cases: cell-based
# GIP receptor = target: T1, GIP receptor (Homo sapiens, UniProt P48546); assay: cAMP synthesis functional assay (firefly luciferase reporter in HEK293 cells), GIP receptor; details: for EC50: GIP Receptor EC50, cAMP luciferase reporter assay as in Example 16; for GIP Receptor relative activity: relative to the standard (Std.) EC50 of the same run
# T1 construct: expressed in transfected cells; host or cells: HEK293
# T1 sequence (P48546 22-466): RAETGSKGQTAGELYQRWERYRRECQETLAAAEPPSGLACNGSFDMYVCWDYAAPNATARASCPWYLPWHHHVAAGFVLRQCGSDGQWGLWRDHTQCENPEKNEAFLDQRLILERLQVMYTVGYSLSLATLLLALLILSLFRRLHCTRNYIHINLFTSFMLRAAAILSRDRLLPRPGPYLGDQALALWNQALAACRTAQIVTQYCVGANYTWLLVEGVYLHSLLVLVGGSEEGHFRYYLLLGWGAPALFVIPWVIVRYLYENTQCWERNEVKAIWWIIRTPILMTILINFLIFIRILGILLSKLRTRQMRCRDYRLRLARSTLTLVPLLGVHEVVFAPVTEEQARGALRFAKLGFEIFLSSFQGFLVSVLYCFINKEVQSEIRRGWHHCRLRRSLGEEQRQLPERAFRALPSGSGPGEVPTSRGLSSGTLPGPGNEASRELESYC
# GLP-1 receptor = target: T2, GLP-1 receptor (Homo sapiens, UniProt P43220); assay: cAMP synthesis functional assay (firefly luciferase reporter in HEK293 cells), GLP-1 receptor; details: for EC50: GLP-1 Receptor EC50, cAMP luciferase reporter assay as in Example 16; for GLP-1 Receptor relative activity: relative to the standard (Std.) EC50 of the same run
# T2 construct: expressed in transfected cells; host or cells: HEK293
# glucagon receptor = target: T3, glucagon receptor (Homo sapiens, UniProt P47871); assay: cAMP synthesis functional assay (firefly luciferase reporter in HEK293 cells), glucagon receptor; details: for EC50: Glucagon Receptor EC50, cAMP luciferase reporter assay as in Example 16; for Glucagon Receptor relative activity: relative to the standard (Std.) EC50 of the same run
# T3 construct: expressed in transfected cells; host or cells: HEK293
# T3 sequence (P47871 26-477): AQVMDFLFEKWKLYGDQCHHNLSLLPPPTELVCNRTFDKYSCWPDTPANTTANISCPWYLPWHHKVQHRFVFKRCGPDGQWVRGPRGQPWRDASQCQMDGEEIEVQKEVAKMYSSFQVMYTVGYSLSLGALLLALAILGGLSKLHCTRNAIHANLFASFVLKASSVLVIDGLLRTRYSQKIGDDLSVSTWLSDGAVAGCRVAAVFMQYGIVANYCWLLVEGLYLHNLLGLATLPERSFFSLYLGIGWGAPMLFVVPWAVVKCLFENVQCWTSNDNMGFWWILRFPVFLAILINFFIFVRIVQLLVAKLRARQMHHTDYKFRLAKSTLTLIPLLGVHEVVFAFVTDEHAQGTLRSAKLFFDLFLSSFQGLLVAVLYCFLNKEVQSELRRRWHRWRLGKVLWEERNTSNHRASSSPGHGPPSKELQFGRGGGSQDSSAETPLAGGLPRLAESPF
# T2 sequence (P43220 24-463, species assumed): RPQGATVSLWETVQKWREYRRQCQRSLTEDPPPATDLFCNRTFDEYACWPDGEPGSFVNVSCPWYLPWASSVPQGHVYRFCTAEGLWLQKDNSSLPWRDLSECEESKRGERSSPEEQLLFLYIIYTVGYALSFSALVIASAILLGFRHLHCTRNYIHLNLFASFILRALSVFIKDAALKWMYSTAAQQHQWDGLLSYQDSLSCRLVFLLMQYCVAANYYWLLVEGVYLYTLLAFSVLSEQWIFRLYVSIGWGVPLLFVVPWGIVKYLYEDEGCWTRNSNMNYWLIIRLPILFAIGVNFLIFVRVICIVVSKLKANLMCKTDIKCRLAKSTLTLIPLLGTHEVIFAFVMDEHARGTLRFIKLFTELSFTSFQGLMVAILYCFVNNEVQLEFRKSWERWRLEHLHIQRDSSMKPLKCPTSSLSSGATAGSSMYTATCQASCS
smiles,measurement,setting,value
CCCCCCCCCCCCCCCC(=O)NCCCC[C@H](NC(=O)[C@H](CC(=O)O)NC(=O)[C@H](CO)NC(=O)[C@@H](NC(=O)[C@H](Cc1ccccc1)NC(=O)[C@@H](NC(=O)CNC(=O)[C@H](CCC(=O)O)NC(=O)C(C)(C)NC(=O)[C@@H](N)Cc1ccc(O)cc1)[C@@H](C)O)[C@@H](C)O)C(=O)N[C@@H](CO)C(=O)N[C@H](C(=O)N[C@@H](Cc1ccc(O)cc1)C(=O)N[C@@H](CC(C)C)C(=O)N[C@@H](CC(=O)O)C(=O)N[C@@H](CCCCN)C(=O)N[C@@H](CCC(N)=O)C(=O)N[C@@H](C)C(=O)N[C@@H](C)C(=O)NC(C)(C)C(=O)N[C@@H](CCC(=O)O)C(=O)N[C@@H](Cc1ccccc1)C(=O)N[C@H](C(=O)N[C@@H](CC(N)=O)C(=O)N[C@@H](Cc1c[nH]c2ccccc12)C(=O)N[C@@H](CC(C)C)C(=O)N[C@@H](CC(C)C)C(=O)N[C@@H](C)C(=O)NCC(=O)NCC(=O)N1CCC[C@H]1C(=O)N[C@@H](CO)C(=O)N[C@@H](CO)C(=O)NCC(=O)N[C@@H](C)C(=O)N1CCC[C@H]1C(=O)N1CCC[C@H]1C(=O)N1CCC[C@H]1C(=O)N[C@@H](CO)C(N)=O)C(C)C)[C@@H](C)CC [mt-270] (H-Y[Aib]EGTFTSDK(Palmitoyl)SIYLDKQAA[Aib]EFVNWLLAGGPSSGAPPPS-NH2; N-terminus assumed),EC50,GIP receptor,0.0049 nM
same,GIP Receptor relative activity,GIP receptor,163.27%
same,EC50,GLP-1 receptor,0.0093 nM
same,GLP-1 Receptor relative activity,GLP-1 receptor,211.83%
same,EC50,glucagon receptor,306 nM
same,Glucagon Receptor relative activity,glucagon receptor,0.06%
CCCCCCCCCCCCCCCCCC(=O)NCCCC[C@H](NC(=O)[C@H](CC(=O)O)NC(=O)[C@H](CO)NC(=O)[C@@H](NC(=O)[C@H](Cc1ccccc1)NC(=O)[C@@H](NC(=O)CNC(=O)[C@H](CCC(=O)O)NC(=O)C(C)(C)NC(=O)[C@@H](N)Cc1ccc(O)cc1)[C@@H](C)O)[C@@H](C)O)C(=O)N[C@@H](CO)C(=O)N[C@H](C(=O)N[C@@H](Cc1ccc(O)cc1)C(=O)N[C@@H](CC(C)C)C(=O)N[C@@H](CC(=O)O)C(=O)N[C@@H](CCCCN)C(=O)N[C@@H](CCC(N)=O)C(=O)N[C@@H](C)C(=O)N[C@@H](C)C(=O)NC(C)(C)C(=O)N[C@@H](CCC(=O)O)C(=O)N[C@@H](Cc1ccccc1)C(=O)N[C@H](C(=O)N[C@@H](CC(N)=O)C(=O)N[C@@H](Cc1c[nH]c2ccccc12)C(=O)N[C@@H](CC(C)C)C(=O)N[C@@H](CC(C)C)C(=O)N[C@@H](C)C(=O)NCC(=O)NCC(=O)N1CCC[C@H]1C(=O)N[C@@H](CO)C(=O)N[C@@H](CO)C(=O)NCC(=O)N[C@@H](C)C(=O)N1CCC[C@H]1C(=O)N1CCC[C@H]1C(=O)N1CCC[C@H]1C(=O)N[C@@H](CO)C(N)=O)C(C)C)[C@@H](C)CC [mt-271] (H-Y[Aib]EGTFTSDK(Stearoyl)SIYLDKQAA[Aib]EFVNWLLAGGPSSGAPPPS-NH2; N-terminus assumed),EC50,GIP receptor,0.0056 nM
same,GIP Receptor relative activity,GIP receptor,142.86%
same,EC50,GLP-1 receptor,0.0106 nM
same,GLP-1 Receptor relative activity,GLP-1 receptor,185.85%
same,EC50,glucagon receptor,113 nM
same,Glucagon Receptor relative activity,glucagon receptor,0.17%
CC[C@H](C)[C@H](NC(=O)[C@H](CO)NC(=O)[C@H](CCCCN)NC(=O)[C@H](CC(=O)O)NC(=O)[C@H](CO)NC(=O)[C@@H](NC(=O)[C@H](Cc1ccccc1)NC(=O)[C@@H](NC(=O)CNC(=O)[C@H](CCC(=O)O)NC(=O)C(C)(C)NC(=O)[C@@H](N)Cc1ccc(O)cc1)[C@@H](C)O)[C@@H](C)O)C(=O)N[C@@H](Cc1ccc(O)cc1)C(=O)N[C@@H](CC(C)C)C(=O)N[C@@H](CC(=O)O)C(=O)N[C@@H](CCCCN)C(=O)N[C@@H](CCC(N)=O)C(=O)N[C@@H](C)C(=O)N[C@@H](C)C(=O)NC(C)(C)C(=O)N[C@@H](CCC(=O)O)C(=O)N[C@@H](Cc1ccccc1)C(=O)N[C@H](C(=O)N[C@@H](CC(N)=O)C(=O)N[C@@H](Cc1c[nH]c2ccccc12)C(=O)N[C@@H](CC(C)C)C(=O)N[C@@H](CC(C)C)C(=O)N[C@@H](C)C(=O)NCC(=O)NCC(=O)N1CCC[C@H]1C(=O)N[C@@H](CO)C(=O)N[C@@H](CO)C(=O)NCC(=O)N[C@@H](C)C(=O)N1CCC[C@H]1C(=O)N1CCC[C@H]1C(=O)N1CCC[C@H]1C(=O)N[C@@H](CO)C(N)=O)C(C)C [mt-272] (H-Y[Aib]EGTFTSDKSIYLDKQAA[Aib]EFVNWLLAGGPSSGAPPPS-NH2; N-terminus assumed),EC50,GIP receptor,0.0241 nM
same,GIP Receptor relative activity,GIP receptor,33.20%
same,EC50,GLP-1 receptor,1.23 nM
same,GLP-1 Receptor relative activity,GLP-1 receptor,1.60%
same,EC50,glucagon receptor,1060 nM
same,Glucagon Receptor relative activity,glucagon receptor,0.02%
CCCCCCCCCCCCCC(=O)NCCCC[C@H](NC(=O)[C@H](CC(=O)O)NC(=O)[C@H](CO)NC(=O)[C@@H](NC(=O)[C@H](Cc1ccccc1)NC(=O)[C@@H](NC(=O)CNC(=O)[C@H](CCC(=O)O)NC(=O)C(C)(C)NC(=O)[C@@H](N)Cc1ccc(O)cc1)[C@@H](C)O)[C@@H](C)O)C(=O)N[C@@H](CO)C(=O)N[C@H](C(=O)N[C@@H](Cc1ccc(O)cc1)C(=O)N[C@@H](CC(C)C)C(=O)N[C@@H](CC(=O)O)C(=O)N[C@@H](CCCCN)C(=O)N[C@@H](CCC(N)=O)C(=O)N[C@@H](C)C(=O)N[C@@H](C)C(=O)NC(C)(C)C(=O)N[C@@H](CCC(=O)O)C(=O)N[C@@H](Cc1ccccc1)C(=O)N[C@H](C(=O)N[C@@H](CC(N)=O)C(=O)N[C@@H](Cc1c[nH]c2ccccc12)C(=O)N[C@@H](CC(C)C)C(=O)N[C@@H](CC(C)C)C(=O)N[C@@H](C)C(=O)NCC(N)=O)C(C)C)[C@@H](C)CC [mt-282] (H-Y[Aib]EGTFTSDK(Myristoyl)SIYLDKQAA[Aib]EFVNWLLAG-NH2; N-terminus assumed),GIP Receptor relative activity,GIP receptor,76.69%
same,EC50,GLP-1 receptor,0.0134 nM
same,GLP-1 Receptor relative activity,GLP-1 receptor,44.03%
same,EC50,glucagon receptor,2.44 nM
same,Glucagon Receptor relative activity,glucagon receptor,1.18%
CCCCCCCCCCCCCCCC(=O)NCCCC[C@H](NC(=O)[C@H](CC(=O)O)NC(=O)[C@H](CO)NC(=O)[C@@H](NC(=O)[C@H](Cc1ccccc1)NC(=O)[C@@H](NC(=O)CNC(=O)[C@H](CCC(=O)O)NC(=O)C(C)(C)NC(=O)[C@@H](N)Cc1ccc(O)cc1)[C@@H](C)O)[C@@H](C)O)C(=O)N[C@@H](CO)C(=O)N[C@H](C(=O)N[C@@H](Cc1ccc(O)cc1)C(=O)N[C@@H](CC(C)C)C(=O)N[C@@H](CC(=O)O)C(=O)N[C@@H](CCCCN)C(=O)N[C@@H](CCC(N)=O)C(=O)N[C@@H](C)C(=O)N[C@@H](C)C(=O)NC(C)(C)C(=O)N[C@@H](CCC(=O)O)C(=O)N[C@@H](Cc1ccccc1)C(=O)N[C@H](C(=O)N[C@@H](CC(N)=O)C(=O)N[C@@H](Cc1c[nH]c2ccccc12)C(=O)N[C@@H](CC(C)C)C(=O)N[C@@H](CC(C)C)C(=O)N[C@@H](C)C(=O)NCC(N)=O)C(C)C)[C@@H](C)CC [mt-283] (H-Y[Aib]EGTFTSDK(Palmitoyl)SIYLDKQAA[Aib]EFVNWLLAG-NH2; N-terminus assumed),GIP Receptor relative activity,GIP receptor,83.61%
same,EC50,GLP-1 receptor,0.0158 nM
same,GLP-1 Receptor relative activity,GLP-1 receptor,37.34%
same,EC50,glucagon receptor,7.94 nM
same,Glucagon Receptor relative activity,glucagon receptor,0.36%
CCCCCCCCCCCCCCCCCC(=O)NCCCC[C@H](NC(=O)[C@H](CC(=O)O)NC(=O)[C@H](CO)NC(=O)[C@@H](NC(=O)[C@H](Cc1ccccc1)NC(=O)[C@@H](NC(=O)CNC(=O)[C@H](CCC(=O)O)NC(=O)C(C)(C)NC(=O)[C@@H](N)Cc1ccc(O)cc1)[C@@H](C)O)[C@@H](C)O)C(=O)N[C@@H](CO)C(=O)N[C@H](C(=O)N[C@@H](Cc1ccc(O)cc1)C(=O)N[C@@H](CC(C)C)C(=O)N[C@@H](CC(=O)O)C(=O)N[C@@H](CCCCN)C(=O)N[C@@H](CCC(N)=O)C(=O)N[C@@H](C)C(=O)N[C@@H](C)C(=O)NC(C)(C)C(=O)N[C@@H](CCC(=O)O)C(=O)N[C@@H](Cc1ccccc1)C(=O)N[C@H](C(=O)N[C@@H](CC(N)=O)C(=O)N[C@@H](Cc1c[nH]c2ccccc12)C(=O)N[C@@H](CC(C)C)C(=O)N[C@@H](CC(C)C)C(=O)N[C@@H](C)C(=O)NCC(N)=O)C(C)C)[C@@H](C)CC [mt-284] (H-Y[Aib]EGTFTSDK(Stearoyl)SIYLDKQAA[Aib]EFVNWLLAG-NH2; N-terminus assumed),GIP Receptor relative activity,GIP receptor,54.84%
same,EC50,GLP-1 receptor,0.0155 nM
same,GLP-1 Receptor relative activity,GLP-1 receptor,38.06%
same,EC50,glucagon receptor,4.17 nM
same,Glucagon Receptor relative activity,glucagon receptor,0.69%
CC[C@H](C)[C@H](NC(=O)[C@H](CO)NC(=O)[C@H](Cc1ccc(O)cc1)NC(=O)[C@H](CC(=O)O)NC(=O)[C@H](CO)NC(=O)[C@@H](NC(=O)[C@H](Cc1ccccc1)NC(=O)[C@@H](NC(=O)CNC(=O)[C@H](CCC(=O)O)NC(=O)C(C)(C)NC(=O)[C@@H](N)Cc1ccc(O)cc1)[C@@H](C)O)[C@@H](C)O)C(=O)N[C@@H](Cc1ccc(O)cc1)C(=O)N[C@@H](CC(C)C)C(=O)N[C@@H](CC(=O)O)C(=O)N[C@@H](CCCCN)C(=O)N[C@@H](CCC(N)=O)C(=O)N[C@@H](C)C(=O)N[C@@H](C)C(=O)NC(C)(C)C(=O)N[C@@H](CCC(=O)O)C(=O)N[C@@H](Cc1ccccc1)C(=O)N[C@H](C(=O)N[C@@H](CS)C(=O)N[C@@H](Cc1c[nH]c2ccccc12)C(=O)N[C@@H](CC(C)C)C(=O)N[C@@H](CC(C)C)C(=O)N[C@@H](C)C(=O)NCC(=O)NCC(=O)N1CCC[C@H]1C(=O)N[C@@H](CO)C(=O)N[C@@H](CO)C(=O)NCC(=O)N[C@@H](C)C(=O)N1CCC[C@H]1C(=O)N1CCC[C@H]1C(=O)N1CCC[C@H]1C(=O)N[C@@H](CO)C(=O)N[C@@H](CCCCN)C(N)=O)C(C)C [mt-308],EC50,GIP receptor,0.0057 nM
same,GIP Receptor relative activity,GIP receptor,285.96%
same,GLP-1 Receptor relative activity,GLP-1 receptor,68.35%
same,EC50,glucagon receptor,12.2 nM
same,Glucagon Receptor relative activity,glucagon receptor,0.39%
